Test results: PubChem BioAssay (NCI)
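Grown in 96-well plates, cells were treated for 48 hours with each compound at five concentrations. Insufficient inhibition: endpoint recorded as highest concentration tested. At the TGI there is no net growth.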

Legend:
Experiment in all cases: growth of human tumour cells (NCI), 48 h
BT-549 breast = system: BT-549 breast
DU-145 prostate = system: DU-145 prostate
HCT-116 colon = system: HCT-116 colon
HCT-15 colon = system: HCT-15 colon
KM12 colon = system: KM12 colon
MCF7 breast = system: MCF7 breast
MDA-N = system: MDA-N
NCI-H23 lung = system: NCI-H23 lung
NCI/ADR-RES ovarian = system: NCI/ADR-RES ovarian
OVCAR-4 ovarian = system: OVCAR-4 ovarian
SK-MEL-2 melanoma = system: SK-MEL-2 melanoma
U251 CNS = system: U251 CNS
SW-620 colon = system: SW-620 colon

SMILES | TGI (BT-549 breast) | TGI (DU-145 prostate) | TGI (HCT-116 colon) | TGI (HCT-15 colon) | TGI (KM12 colon) | TGI (MCF7 breast) | TGI (MDA-N) | TGI (NCI-H23 lung) | TGI (NCI/ADR-RES ovarian) | TGI (OVCAR-4 ovarian) | TGI (SK-MEL-2 melanoma) | TGI (U251 CNS) | TGI (SW-620 colon)
Cc1cc(N(CCC#N)CCC#N)ccc1/C(N=Nc1ccccc1)=N\NC(=O)c1cc(Cl)ccc1O | 57 µM | > 100 µM | 36.7 µM | 53.1 µM | > 100 µM | 67.9 µM | > 100 µM | 35.1 µM | 72.7 µM | 65.4 µM | > 100 µM | > 100 µM | –
COc1ccc(/C(Nc2ccccc2)=C(\CCl)c2ccccc2)cc1OC | > 100 µM | > 100 µM | 48.9 µM | > 100 µM | > 100 µM | > 100 µM | > 100 µM | > 100 µM | > 100 µM | > 100 µM | 79.9 µM | 64.7 µM | > 100 µM
CCOC(=O)c1cn(CC)c(=O)n2c1nc1ccccc12 | > 100 µM | > 100 µM | > 100 µM | > 100 µM | > 100 µM | > 100 µM | > 100 µM | > 100 µM | > 100 µM | > 100 µM | > 100 µM | > 100 µM | > 100 µM
CC(=O)c1ccc(N=NN2CCCC2)cc1 | > 100 µM | > 100 µM | > 100 µM | > 100 µM | > 100 µM | > 100 µM | > 100 µM | > 100 µM | > 100 µM | > 100 µM | > 100 µM | > 100 µM | > 100 µM
CSC(=O)/C=C1\SS/C(=C\C(=O)SC)S1 | 3.26 µM | 15.7 µM | 3.29 µM | 6.07 µM | 13 µM | 9.19 µM | 8.37 µM | 27.6 µM | 8.71 µM | > 41.2 µM | 4.93 µM | 6.03 µM | 4.15 µM
COC(=O)[C@@H]1[C@@H]2NC(=S)N[C@@]1(C)Oc1ccccc12 | > 100 µM | > 100 µM | > 100 µM | > 100 µM | > 100 µM | > 100 µM | 88.1 µM | > 100 µM | > 100 µM | > 100 µM | > 100 µM | > 100 µM | > 100 µM
C=C1CC[C@@H](CCC2CCC3(OC2)O[C@]2(O)CC[C@@]3(C)OC2(C)C)C(C)(C)[C@H]1C/C=C1\CCOC1=O (stereo partly specified) | 49.1 µM | > 100 µM | 22.5 µM | > 81.4 µM | > 60.3 µM | 28.9 µM | > 100 µM | > 100 µM | > 100 µM | > 100 µM | 48.3 µM | 43.5 µM | > 100 µM
O=C(CCc1cc(O)cc(O)c1)NCCc1cc(O)cc(OCc2ccccc2)c1 | 66.1 µM | > 100 µM | > 100 µM | > 100 µM | > 100 µM | > 100 µM | > 100 µM | > 100 µM | > 100 µM | – | > 100 µM | > 100 µM | > 100 µM
NCCOc1cccc(C2(N3CCCCC3)CCCCC2)c1 | 40 µM | > 100 µM | 34.4 µM | > 100 µM | > 100 µM | > 100 µM | 33.3 µM | > 100 µM | > 100 µM | > 100 µM | 52.2 µM | 35.1 µM | > 100 µM
CC(=O)c1ccc(Nc2c3c(nc4ccccc24)CCCC3)cc1 | > 41.3 µM | > 65 µM | > 72 µM | > 100 µM | > 36 µM | > 100 µM | 11.2 µM | 43.4 µM | 56.2 µM | > 100 µM | > 100 µM | > 59.2 µM | > 78.8 µM
COC(=O)[C@@H]1CO[C@H](C(C)(C)C)N1C(=O)N1C=CC(=O)C[C@H]1C | > 100 µM | > 100 µM | > 100 µM | – | > 100 µM | > 100 µM | > 100 µM | > 100 µM | > 100 µM | – | > 100 µM | > 100 µM | > 100 µM
COc1ccc(-c2oc3cc(-c4cc5oc(-c6ccc(OC)cc6)c(-c6ccc(OC)cc6)c5cc4OC)c(OC)cc3c2-c2ccc(OC)cc2)cc1 | > 100 µM | > 100 µM | > 100 µM | > 100 µM | > 100 µM | > 100 µM | > 100 µM | > 100 µM | > 100 µM | > 100 µM | – | > 100 µM | > 100 µM
S=C1Cc2c(-c3ccccc3)cc(-c3cccc(Cl)c3)nc2-c2ccccc2N1 | 19.5 µM | 38.9 µM | 6.53 µM | 33.4 µM | > 100 µM | > 58.1 µM | 26.5 µM | 21.2 µM | 8.32 µM | 1.21 µM | 28.4 µM | 3.31 µM | 15.4 µM
[B]C(=O)NC(CC(C)C)C(=O)NCC(=O)NC1c2ccsc2C(=O)C1O (stereo unspecified) (tested in a mixture with another compound) | > 100 µM | > 100 µM | > 100 µM | > 100 µM | > 100 µM | > 100 µM | > 100 µM | > 100 µM | > 100 µM | > 100 µM | > 100 µM | > 100 µM | > 100 µM
Cc1cc(O)c(/C=N/C(N)=S)c(=O)o1 | > 100 µM | > 100 µM | > 100 µM | > 100 µM | > 100 µM | > 100 µM | > 100 µM | > 100 µM | > 100 µM | > 100 µM | > 100 µM | > 100 µM | > 100 µM
COC(=O)/C=C(\C(=O)OC)c1cc(C)c2cc(C(C)C)ccc(C)c1-2 | > 100 µM | > 100 µM | > 100 µM | 27.5 µM | > 100 µM | 72.8 µM | 46.3 µM | > 100 µM | > 100 µM | > 100 µM | > 100 µM | > 100 µM | > 100 µM
Clc1ccc(C=Nc2ccc(Oc3ccc(Cl)cc3)c(Cl)c2)cc1 | 53.3 µM | > 100 µM | 36.2 µM | 44.2 µM | 52.5 µM | 88 µM | 38.8 µM | 54.2 µM | 58.5 µM | 76.1 µM | 54.2 µM | 60.5 µM | > 100 µM
